[invAb] = inverted abasic unit; m = 2'-O-methyl; r = 2'-OH (RNA); f = 2'-fluoro
Test system: ENaCα mRNA
Assay: Screening of ENaCα siNAs in human A549 cells (quantitative RT-PCR)
Type: cell-based
Parameters: Percent Reduction of the ENaCα mRNA relative to a non-targeting control siNA (NTC): concentration or dose not given beside the values
Conditions: for Avg ENaCα Expression / Mean (level of ENaCα expression normalized to the level of GAPDH) / Percent Reduction of the ENaCα mRNA relative to a non-targeting control siNA (NTC) / Avg GAPDH Expression: human A549 cells, n = 3; for Avg ENaCα Expression: 25 nM siNA with Lipofectamine 2000, harvested 24 hours post-transfection; for Mean (level of ENaCα expression normalized to the level of GAPDH) / Percent Reduction of the ENaCα mRNA relative to a non-targeting control siNA (NTC) / Avg GAPDH Expression: 24 hours post-transfection; for Avg GAPDH Expression: housekeeping gene used for normalisation; for IC50 / Human % KD (efficacy of ENaCα mRNA knockdown): human cell line; for IC50: dose response, read-out: Human IC50 (potency of ENaCα mRNA knockdown); for Human % KD (efficacy of ENaCα mRNA knockdown): summary
Experimental: siNA constructs (Table 1b) may be tested for efficacy in reducing ENaC RNA expression in, for example, A549 human lung carcinoma cells. A549 (human; ATCC cat# CCL-185) cells were cultured at 37° C. in the presence of 5% CO2 and grown in Ham's F12K medium with 2 mM L-glutamine adjusted to contain 1.5 g/L sodium bicarbonate and supplemented with fetal bovine serum at a final concentration of 10% and 100 U/mL penicillin. The A549 cells were plated approximately 24 hours before transfection in 96-well plates at 7,500 cells/well, 100 μl/well. After 24 hours complexes containing siNA and Lipofectamine 2000 (Invitrogen) were created as follows: a solution of Lipofectamine 2000 in OPTI-MEM was prepared containing Lipofectamine 2000 at a final concentration of 14 μg/ml. In parallel, solutions of the siNAs were prepared in OPTI-MEM at a final concentration of 150 nM. After both solutions were incubated at 20° C. for 20 minutes an equal volume of the siNA solutions and the Lipofectamine 2000 solution were added together for each of the siNAs. The resultant solution has the siNAs at a final concentration of 75 nM and Lipofectamine 2000 at a final concentration of 7 μg/ml. This solution was incubated at 20° C. for 20 minutes. After incubation 50 μl of the solution were added to each of the wells (in triplicate). The final concentration of siNA in each well was 25 nM and the final concentration of Lipofectamine 2000 in each well was 2.33 μg/ml. […] Dose response curves were determined in a similar manner with each concentration being done in triplicate and maintaining a constant amount of Lipofectamine 2000 in each transfection.
RNA was extracted from 96-well plates using the Invitek Invisorb RNA Cell HTS 96 Kit/C (Cat# 70619000) with a slightly modified protocol. The details of the protocol for isolating RNA from each plate are described as follows:
1) Aspirate media with rake 2) Add 150 ul/well Lysis buffer 3) Place on plate shaker for 1 minute 4) Place DNA binding plate on top of 0.5 ml collection plate 5) Pipette 190 ul up and down twice and add to DNA binding plate 6) Cover plate 7) Centrifuge plates 4 minutes at 4000 RPM 8) Discard DNA binding plate 9) Place the RNA binding plate on top of 2 ml collection plate 10) Add 150 ul/well of Binding Buffer R to 0.5 ml collection plate 11) Move contents of 0.5 ml collection plate to RNA binding plate 12) Let incubate for 1 minute 13) Centrifuge plates 4 minutes at 4000 RPM 14) Add 600 ul/well of Wash Buffer R1 to RNA binding plate 15) Centrifuge plates 4 minutes at 4000 RPM 16) Dump wash buffer from 2 ml collection plate 17) Add 400 ul/well of Wash Buffer R2 to RNA binding plate 18) Centrifuge plates 4 minutes at 4000 RPM 19) Add 400 ul/well of Wash Buffer R2 to RNA binding plate 20) Centrifuge plates 10 minutes at 4000 RPM 21) Dump wash buffer from 2 ml collection plate 22) Centrifuge plates 3 minutes at 4000 RPM 23) Discard 2 ml collection plate and place RNA binding plate on to microtiter plate 24) Add 100 ul/well of elution buffer to RNA binding plate 25) Incubate for 2 minutes 26) Seal plate 27) Centrifuge plates 3 minutes at 4000 RPM 28) Discard RNA binding plate 29) Cover microtiter plate for storage in −80 freezer
A series of probes and primers were used to detect the various mRNA transcripts of the genes of ENaCa and GAPDH in mouse, rat, and human cell lines. The assays were performed on an ABI 7500 instrument, according to the manufacturer's instructions. Within each experiment, the baseline was set in the exponential phase of the amplification curve, and based on the intersection point of the baselines with the amplification curve, a Ct value was assigned by the instrument. This Ct value was then assigned a QTY value based on the Standard Curve. The standard curve in the various experiments herein used 1 ng to 300 ng of RNA extracted from the same cell line used for the experimental transfections. […]

| Substance | Avg ENaCα Expression | Mean (level of ENaCα expression normalized to the level of GAPDH) | Percent Reduction of the ENaCα mRNA relative to a non-targeting control siNA (NTC) [%] | Avg GAPDH Expression | IC50 [pM] | Human % KD (efficacy of ENaCα mRNA knockdown) |
| --- | --- | --- | --- | --- | --- | --- |
| B cccuGcuGuccAcAGuGAc TTB / GUCAcuGuGGAcAGcAGGGUU (sense CCCUGCUGUCCACAGUGACTT; antisense GUCACUGUGGACAGCAGGGUU; siRNA; sense: DNA at AGT, 2'-fluoro at CU, [invAb] at 5' end, 3' end, backbone not given here; antisense: sugars from the 5' end rrrmffmfmmmfmmfmmmmmm, backbone not given here) [Site 1121] | 72.95 | 1.65 | −6.0 | 46.89 | – | – |
| B cuGuGcAAccAGAAcAAAu TTB / AUUuGuucuGGuuGcAcAGUU (chain 1 CUGUGCAACCAGAACAAAUTT; chain 2 AUUUGUUCUGGUUGCACAGUU; siRNA; chain 1: DNA at AGT, 2'-fluoro at CU, [invAb] at 5' end, 3' end, backbone not given here; chain 2: sugars from the 5' end rrrfmffffmmffmfmfmmmm, backbone not given here) [Site 781] | 61.44 | 0.97 | 37.7 | 66.47 | – | – |
| B cuccuGuccAAccuGGGcA TTB / UGCccAGGuuGGAcAGGAGUU (sense CUCCUGUCCAACCUGGGCATT; antisense UGCCCAGGUUGGACAGGAGUU; siRNA; sense: DNA at AGT, 2'-fluoro at CU, [invAb] at 5' end, 3' end, backbone not given here; antisense: sugars from the 5' end rrrffmmmffmmmfmmmmmmm, backbone not given here) [Site 1738] | 77.23 | 0.71 | −7.4 | 108.96 | – | – |
| B uGGGcAGccAGuGGAGccu TTB / AGGcuccAcuGGcuGcccAUU (sense UGGGCAGCCAGUGGAGCCUTT; antisense AGGCUCCACUGGCUGCCCAUU; siRNA; sense: DNA at AGT, 2'-fluoro at CU, [invAb] at 5' end, 3' end, backbone not given here; antisense: sugars from the 5' end rrrffffmffmmffmfffmmm, backbone not given here) [Site 1751] | 63.35 | 0.49 | 25.4 | 128.83 | – | – |
| B uGGcuGuGccuAcAucuuc TTB / GAAGAuGuAGGcAcAGccAUU (sense UGGCUGUGCCUACAUCUUCTT; antisense GAAGAUGUAGGCACAGCCAUU; siRNA; sense: DNA at AGT, 2'-fluoro at CU, [invAb] at 5' end, 3' end, backbone not given here; antisense: sugars from the 5' end rrrmmfmfmmmfmfmmffmmm, backbone not given here) [Site 1386] | 72.05 | 0.64 | 2.8 | 112.63 | – | – |
| B uGuGGcuGuGccuAcAucu TTB / AGAuGuAGGcAcAGccAcAUU (sense UGUGGCUGUGCCUACAUCUTT; antisense AGAUGUAGGCACAGCCACAUU; siRNA; sense: DNA at AGT, 2'-fluoro at CU, [invAb] at 5' end, 3' end, backbone not given here; antisense: sugars from the 5' end rrrfmfmmmfmfmmffmfmmm, backbone not given here) [Site 1384] | 82.65 | 0.80 | −21.6 | 103.38 | – | – |
| B uGuGcAAccAGAAcAAAuc TTB / GAUuuGuucuGGuuGcAcAUU (chain 1 UGUGCAACCAGAACAAAUCTT; chain 2 GAUUUGUUCUGGUUGCACAUU; siRNA; B caps on sense ends, letter-case modifications not given here, further chemistry not given here) [Site 782] | 39.99 | 0.61 | 60.9 | 66.25 | 360 | 60-85% |
| B uGuccAAccuGGGcAGccA TTB / UGGcuGcccAGGuuGGAcAUU (sense UGUCCAACCUGGGCAGCCATT; antisense UGGCUGCCCAGGUUGGACAUU; siRNA; sense: DNA at AGT, 2'-fluoro at CU, [invAb] at 5' end, 3' end, backbone not given here; antisense: sugars from the 5' end rrrffmfffmmmffmmmfmmm, backbone not given here) [Site 1742] | 58.12 | 0.53 | 19.7 | 109.65 | – | – |
| B uccuGuccAAccuGGGcAG TTB / CUGcccAGGuuGGAcAGGAUU (sense UCCUGUCCAACCUGGGCAGTT; antisense CUGCCCAGGUUGGACAGGAUU; siRNA; sense: DNA at AGT, 2'-fluoro at CU, [invAb] at 5' end, 3' end, backbone not given here; antisense: sugars from the 5' end rrrfffmmmffmmmfmmmmmm, backbone not given here) [Site 1739] | 75.77 | 0.75 | −13.8 | 100.60 | – | – |
| B uuAuGGAuGAuGGuGGcuu TTB / AAGccAccAucAuccAuAAUU (sense UUAUGGAUGAUGGUGGCUUTT; antisense AAGCCACCAUCAUCCAUAAUU; siRNA; B caps on sense ends, letter-case modifications not given here, further chemistry not given here) [Site 1181] | 36.75 | 0.55 | 64.7 | 70.22 | 400 | 65-80% |
